Test results published in US6248309A, “Gums containing antimicrobial agents” (priority 1999, dated 2001).
Where “and” joins values, the source holds several entries; their conditions need not be identical. Identical values can stand only once. Like-named read-outs stand apart in the source and are kept apart here.

Assays:
[1] = for Rate of release from gum: in words
Experimental: (§7) Ten volunteers chewed 2.7 grams samples of each gum formulation and provided saliva samples at intervals and the gum bolus at the end of the 25 minute chewing period. High pressure liquid chromatography and gas chromatography were used to analyze the gum bolus and saliva non-volatile and volatile components, respectively.
(§8) Saliva samples were collected from each of the individuals prior to chewing 2.7 grams of gum, and at 1.0, 2.5, 5.0, 10.0, and 25.0 minutes while chewing the gum. The saliva samples were refrigerated until analysis. The gum bolus that remained after 25 minutes was saved and extracted immediately or stored refrigerated until extraction for analysis.
(§9) Samples were Vortex-mixed in Multi-tube vortex mixer for one minute and then centrifuged at top speed in clinical centrifuge for two minutes. Supernatants were carefully transferred to 1 milliliter glass shell vials and capped. Analysis was carried out either by isocratic elution for glabridin-only samples, or gradient elution for the samples containing the glycyrrhizic and 18β-glycyrrhetinic acids using high pressure liquid chromatography. Glabridin concentrations were converted to GLY concentrations by taking the weight percent glabridin in GLY to be 2.74 percent.
(§10) The calibration curve was prepared using spiked blank saliva.
(§11) For saliva, the essential oils of menthol, cedarwood oil, geraniol and Rosmarinus officianalis were determined by capillary gas chromatography. The split ratio was 25:1. The injection volume was 2 μL. Four hundred μL of saliva was extracted from the 1 milliliter of ethyl acetate containing an internal standard (hexadecane) in 1.5 milliliter Eppendorf tubes. After centrifugation, the organic layer was injected directly into the Hewlett-Packard 6890 gas chromatograph. […] For this reason, only the samples from 0 to 10 minutes were analyzed. A cleanup gradient was run from 190 to 300° C. every fifth sample to remove less volatile interferences from the column.

[2] = system: Porphyromonas gingivalis (PG); test: MIC of agents alone, in pairs and in three-agent combination (Example 2); type: cell-based, Porphyromonas gingivalis ATCC 33277; conditions: PG, agent used alone
Text: (§1) In addition, the example describes how the MIC of antimicrobial agents in the combinations are reduced compared to the MIC of those antimicrobial agents alone and the MIC of those agents in various pairings. Numerous combinations of the antimicrobial agents described herein were combined to form combinations comprising three antimicrobial agents or triplets. Each of the formed triplets included either cedarwood oil or berberine hydrochloride.
(§2) The protocol used was a variation of the procedure described above in Example 1. The assay was carried out in the two-dimensional array of a 96-well plate. In order to evaluate three agents, two of the agents were paired against the third agent. For example, varying concentrations of antimicrobial agent A plus antimicrobial agent B versus varying concentrations of antimicrobial agent C were evaluated on one 96-well plate. The procedure was repeated with the other two possible pairings, i.e., A+C with B, and B+C with A. Accordingly, each triplet required three assays in order to assess each of the three possible pairings.
(§3) The bacterial innoculum was prepared as described in Example 1.
(§4) A sterile polystyrene 96-well plate was used to dilute the antimicrobial agents A, B and C. Using aseptic technique, 100 microliters of distilled water was placed in each test well. The dilution scheme was separated into two parts. First, the dilution of the combined agents A and B and then second, the dilution of agent C. A dilution of agents A and B was accomplished by placing 50 microliters of stock solution for agent A in the first well of each column. Next, 50 microliters of stock solution for agent B was added to each of the first wells of each column. Accordingly, the first well of each column included 50 microliters of stock solution for agent A and 50 microliters of stock solution for agent B. 100 microliters from the first row in each column was then transferred to the next well in the column and so on down the column. Each transfer was a one-half dilution of the preceding concentration.
(§5) The dilution of antimicrobial agent C was accomplished by adding 100 microliters of agent C stock solution to the first well of each row. 100 microliters from the first well in each row was then transferred to the next well and so on across the row of test wells. Each transfer was a one-half dilution of the preceding concentration. FIG. 1 is a schematic illustration of the concentrations of antimicrobial agents A, B and C derived from the dilution scheme described above. […] The concentration of agent C decreases across a row from left to right. […]
(§6) The 96-well plate was then incubated under conditions that varied by microorganism. […] The plate was then read for microbial growth with a spectrophotometer by optical density. […]

[3] = system: Streptococcus sanguis (SS); test: as above; type: cell-based, Streptococcus sanguis ATCC 49295; conditions: SS; agent used alone
Text: as §1, §2, §3
A sterile polystyrene 96-well plate was used to dilute the antimicrobial agents A, B and C. Using aseptic technique, 100 microliters of distilled water was placed in each test well. The dilution scheme was separated into two parts. First, the dilution of the combined agents A and B and then second, the dilution of agent C. A dilution of agents A and B was accomplished by placing 50 microliters of stock solution for agent A in the first well of each column. Next, 50 microliters of stock solution for agent B was added to each of the first wells of each column. […]
as §6

[4] = system: Campylobacter rectus (CR); test: as above; type: cell-based; conditions: CR, agent used alone, read-out: MIC, individual agent alone
Text: as §1, §2, §3
A sterile polystyrene 96-well plate was used to dilute the antimicrobial agents A, B and C. […]
as §6

[5] = type: in vivo, human volunteers; conditions: in vivo
Experimental: The saliva samples were refrigerated until analysis.
To either 2.7 grams unchewed gum sample or the remaining bolus of chewed gum, was added 3.0 millileters of internal standard (Hesperetin) in methanol, 6.0 milliliters hexane and 3.0 milliliters distilled water. Samples were homogenized using a Polytron Homogenizer model PT10/35 from Brinkmann Instruments, fitted with a PTA10TS generator for at least 30 seconds on ice, or until no lumps of non-dispersed gum were visible in the sample. Samples were then centrifuged in a Dynac Tabletop Centrifuge at top speed for ten minutes. The lower, amber, aqueous/methanol layer were then filtered through 25 millimeter, 0.45 micrometer nylon Acrodisc syringe filters from Gelman into 4 milliliter autosampler vials and tightly capped with polytetrafluorothylene lined septum in open-top screw caps. These samples were then analyzed using high pressure liquid chromatography for glabridin and/or glycyrrhizic and 18β-glycyrrhetinic acid, and were quantitated against a 4-point linear curve prepared by spiking approximately 2.7 grams unchewed samples of Wrigley Extra Sugarfree Peppermint gum with known levels of purified glabridin, glycyrrhizic acid monoammonium salt and 18β-glycyrrhetinicacid.
For the analysis of the gum bolus, both chewed and unchewed, a Polytron Homogenizer, described above was used. The gum sample was placed in a heavy wall glass tube. Internal standard ([…]) ethyl acetate ([…]) and water ([…]) were added. The sample was homogenized for approximately 30 seconds, or until no particles could be seen. The tubes were then centrifuged for 10 minutes on a clinical centrifuge at maximum speed. The supernatant was injected directly onto the gas chromatograph. The oven program was modified to allow resolution of ROF1 components from those of the peppermint flavoring. The gas chromatograph was calibrated using a three point standard curve to quantify the following components: menthol (flavor); geraniol (oil geraniol); cedrene, thujopsene (RC1); pinene, cineol, camphor, bornyl acetate (ROF1). The initial temperature was decreased from 140° C. to 100° C. The temperature gradient was changed from 10° C./minute to 4° C./minute. The split ratio was 50:1, and injection volume was 1 μL as per the method. A cleanup gradient was run every fifth sample as described previously.
A recovery study was performed in triplicate using blank Wrigley's Peppermint Gum (chewed and unchewed) spiked with stand and solution. Recovery was calculated relative to a direct standard consisting of spike solution without sample matrix.

[6] = system: Fusobacterium nucleatum (FN); test: MIC of agents alone, in pairs and in three-agent combination (Example 2); type: cell-based, Fusobacterium nucleatum ATCC 10933; conditions: FN, agent used alone
Text: as §1, §2, §3, §4, §5, §6

[7] = system: Actinomyces viscosus (AV); test: as above; type: cell-based, Actinomyces viscosus ATCC 19246; conditions: AV, agent used alone
Text: as §1, §2, §3, §4, §5, §6

clinical = conditions: human, in vivo
Experimental: as §7, §8, §9, §10, §11

[8] = system: Streptococcus mutans (SM); test: MIC of agents alone, in pairs and in three-agent combination (Example 2); type: cell-based, Streptococcus mutans ATCC 25175; conditions: SM, agent used alone
Text: as §1, §2, §3, §4, §5, §6

Porphyromonas gingivalis = test: MIC of each agent used in Example 5; type: cell-based; conditions: starting dilution 0.1 percent in methanol, MIC defined in micrograms per milliliter, read-out: MIC relative to Porphyromonas gingivalis used in Example 5
Experimental: The MIC Range was determined against a standard panel of five organisms that included Actinomyces viscosus, Fusobacterium nucleatum, Porphyromonas gingivalis, Streptococcus mutans, and Stretococcus sanguis. The starting dilution was 0.1 percent in methanol. The MIC used in this Example 5 was the MIC for each agent relative to Porphyromonas gingivalis.

Above MIC in Saliva (Y/N) ([1]; concentration in saliva at any time above MIC relative to Porphyromonas gingivalis): No | Time maintaining a presence in the oral cavity ([1]; human, in vivo): about 25 minutes | MIC, individual agent alone [2]: 62.5 µg/mL | MIC ([2]; Porphyromonas gingivalis, read-out: MIC, individual agent alone): 62.5 µg/mL | MIC, individual agent alone [3]: 125 µg/mL and 62.5 µg/mL and 250 µg/mL | MIC [4]: 250 µg/mL | Release from Chewed Gum Bolus after 25 min [5]: 34% | MIC, individual agent alone [6]: 62.5 µg/mL and 125 µg/mL | MIC ([6]; Fusobacterium nucleatum, read-out: MIC, individual agent alone): 62.5 µg/mL | MIC, individual agent alone [7]: 62.5 µg/mL and 125 µg/mL | MIC ([7]; Actinomyces viscosus, read-out: MIC, individual agent alone): 125 µg/mL | concentration at 1 min (clinical): 6000 ng/mL | concentration at 2.5 min (clinical): 6000 ng/mL | concentration at 5 min (clinical): 7000 ng/mL | concentration at 10 min (clinical): 5000 ng/mL | MIC, individual agent alone [8]: 125 µg/mL | MIC ([8]; Streptococcus mutans, read-out: MIC, individual agent alone): 125 µg/mL | MIC (Porphyromonas gingivalis): 7.8 µg/mL
SMILES: CC(C)=CCC/C(C)=C/CO [GRA1, trans-3,7-dimethyl-2,6-octadien-1-ol]
Rate of release from gum ([1]; listed as GRA): released more slowly and over a longer period of time | Rate of release from gum ([1]; listed as geraniol): released from a gum base less quickly and over a longer period of time
